# Laboratory results published in US20230085307A1, “PYRIDAZINONE COMPOUND AND HERBICIDE” (NISSAN CHEMICAL CORPORATION, priority 2019, published 2023).
# System: Chinese sprangletop
# Test: Test Example 3: herbicidal effect by foliage application, Wagner pot (Table 18, symbol D)
# Format: in vivo, chinese sprangletop (Leptochloa chinensis)
# Details: 320 g/ha
# How it was run: (§1)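 Plants were sown in alluvial soil held under 0.1–0.5 cm standing water and grown 14 days in a greenhouse at 25–30 °C. An emulsifiable formulation, water-diluted to the set dose, was then sprayed onto the foliage, and effects were scored three weeks later using previously defined criteria.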
row,Compound,"herbicidal effect on D (Chinese sprangletop), rating 0-5"
1,COc1ccc(-c2sc3ccc(F)cc3c2-c2c(O)c(C)nn(C)c2=O)cc1F [2-086],3 (Herbicidal rate of 40% or more and less than 70%)

# System: chickweed
# Test: Test Example 5: herbicidal effect by foliage application, plastic box (Table 20, symbol P)
# Format: in vivo, common chickweed (Stellaria media)
# Details: foliage application, 320 g/ha, evaluated three weeks after application
# How it was run: (§2)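 Foliar spray test: emulsion formulation diluted in water to a set application rate, sprayed onto 14-day-old plants raised in diluvial soil at 25° C to 30° C under glass. Both herbicidal effect and crop effect rated visually three weeks later.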
row,Compound,herbicidal effect on P: chickweed
1,COc1ccc(-c2sc3ccc(F)cc3c2-c2c(O)c(C)nn(C)c2=O)cc1F [2-086],5 (Herbicidal rate of 90% or more (almost completely withered))

# System: green foxtail
# Test: Test Example 5: herbicidal effect by foliage application, plastic box (Table 20, symbol G)
# Format: in vivo, green foxtail (Setaria viridis)
# Details: foliage application, 320 g/ha, evaluated three weeks after application
# How it was run: as §2
row,Compound,herbicidal effect on G: green foxtail
1,COc1ccc(-c2sc3ccc(F)cc3c2-c2c(O)c(C)nn(C)c2=O)cc1F [2-086],3 (Herbicidal rate of 40% or more and less than 70%)

# System: windgrass
# Test: Test Example 5: herbicidal effect by foliage application, plastic box (Table 20, symbol L)
# Format: in vivo, windgrass (Apera spica-venti)
# Details: foliage application, 320 g/ha, evaluated three weeks after application
# How it was run: as §2
row,Compound,herbicidal effect on L: windgrass
1,COc1ccc(-c2sc3ccc(F)cc3c2-c2c(O)c(C)nn(C)c2=O)cc1F [2-086],0 (Herbicidal rate of 5% or less (almost no effect))

# System: chickweed
# Test: Test Example 4: herbicidal effect by soil treatment (Table 19, symbol P)
# Format: in vivo, common chickweed (Stellaria media)
# Details: 320 g/ha
# How it was run: (§3)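 Step 1: sow seeds in sterilized diluvial soil, cover ~1.5 cm. Step 2: spray diluted emulsion onto soil surface at predetermined rate. Step 3: greenhouse, 25–30° C, three weeks. Step 4: grade effect on each plant by earlier criteria.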
row,Compound,"herbicidal effect rating, P: chickweed"
1,COc1ccc(-c2sc3ccc(F)cc3c2-c2c(O)c(C)nn(C)c2=O)cc1F [2-086],0 (Herbicidal rate of 5% or less (almost no effect))

# System: green foxtail
# Test: Test Example 4: herbicidal effect by soil treatment (Table 19, symbol G)
# Format: in vivo, green foxtail (Setaria viridis)
# Details: 320 g/ha
# How it was run: as §3
row,Compound,"herbicidal effect rating, G: green foxtail"
1,COc1ccc(-c2sc3ccc(F)cc3c2-c2c(O)c(C)nn(C)c2=O)cc1F [2-086],3 (Herbicidal rate of 40% or more and less than 70%)

# System: southern crabgrass
# Test: Test Example 4: herbicidal effect by soil treatment (Table 19, symbol F)
# Format: in vivo, southern crabgrass (Digitaria ciliaris)
# Details: 320 g/ha
# How it was run: as §3
row,Compound,"herbicidal effect rating, F: southern crabgrass"
1,COc1ccc(-c2sc3ccc(F)cc3c2-c2c(O)c(C)nn(C)c2=O)cc1F [2-086],1 (Herbicidal rate of 5% or more and less than 20%)

# System: velvetleaf
# Test: Test Example 5: herbicidal effect by foliage application, plastic box (Table 20, symbol M)
# Format: in vivo, velvetleaf (Abutilon theophrasti)
# Details: foliage application, 320 g/ha, evaluated three weeks after application
# How it was run: as §2
row,Compound,herbicidal effect on M: velvetleaf
1,COc1ccc(-c2sc3ccc(F)cc3c2-c2c(O)c(C)nn(C)c2=O)cc1F [2-086],5 (Herbicidal rate of 90% or more (almost completely withered))

# System: wild oat
# Test: Test Example 4: herbicidal effect by soil treatment (Table 19, symbol I)
# Format: in vivo, wild oat (Avena fatua)
# Details: 320 g/ha
# How it was run: as §3
row,Compound,"herbicidal effect rating, I: wild oat"
1,COc1ccc(-c2sc3ccc(F)cc3c2-c2c(O)c(C)nn(C)c2=O)cc1F [2-086],0 (Herbicidal rate of 5% or less (almost no effect))

# System: lambsquarters
# Test: Test Example 4: herbicidal effect by soil treatment (Table 19, symbol O)
# Format: in vivo, lambsquarters (Chenopodium album)
# Details: 320 g/ha
# How it was run: as §3
row,Compound,"herbicidal effect rating, O: lambsquarters"
1,COc1ccc(-c2sc3ccc(F)cc3c2-c2c(O)c(C)nn(C)c2=O)cc1F [2-086],5 (Herbicidal rate of 90% or more (almost completely withered))

# System: redroot pigweed
# Test: Test Example 4: herbicidal effect by soil treatment (Table 19, symbol N)
# Format: in vivo, redroot pigweed (Amaranthus retroflexus)
# Details: 320 g/ha
# How it was run: as §3
row,Compound,"herbicidal effect rating, N: redroot pigweed"
1,COc1ccc(-c2sc3ccc(F)cc3c2-c2c(O)c(C)nn(C)c2=O)cc1F [2-086],4 (Herbicidal rate of 70% or more and less than 90%)

# System: Italian ryegrass
# Test: Test Example 5: herbicidal effect by foliage application, plastic box (Table 20, symbol K)
# Format: in vivo, Italian ryegrass (Lolium multiflorum)
# Details: foliage application, 320 g/ha, evaluated three weeks after application
# How it was run: as §2
row,Compound,herbicidal effect on K: Italian ryegrass
1,COc1ccc(-c2sc3ccc(F)cc3c2-c2c(O)c(C)nn(C)c2=O)cc1F [2-086],0 (Herbicidal rate of 5% or less (almost no effect))

# System: persian speedwell
# Test: Test Example 5: herbicidal effect by foliage application, plastic box (Table 20, symbol R)
# Format: in vivo, Persian speedwell (Veronica persica)
# Details: foliage application, 320 g/ha, evaluated three weeks after application
# How it was run: as §2
row,Compound,herbicidal effect on R: persian speedwell
1,COc1ccc(-c2sc3ccc(F)cc3c2-c2c(O)c(C)nn(C)c2=O)cc1F [2-086],5 (Herbicidal rate of 90% or more (almost completely withered))

# System: windgrass
# Test: Test Example 4: herbicidal effect by soil treatment (Table 19, symbol L)
# Format: in vivo, windgrass (Apera spica-venti)
# Details: 320 g/ha
# How it was run: as §3
row,Compound,"herbicidal effect rating, L: windgrass"
1,COc1ccc(-c2sc3ccc(F)cc3c2-c2c(O)c(C)nn(C)c2=O)cc1F [2-086],0 (Herbicidal rate of 5% or less (almost no effect))

# System: barnyard grass
# Test: Test Example 3: herbicidal effect by foliage application, Wagner pot (Table 18, symbol H)
# Format: in vivo, barnyard grass (Echinochloa crus-galli)
# Details: 320 g/ha
# How it was run: as §1
row,Compound,"herbicidal effect on H (barnyard grass), rating 0-5"
1,COc1ccc(-c2sc3ccc(F)cc3c2-c2c(O)c(C)nn(C)c2=O)cc1F [2-086],3 (Herbicidal rate of 40% or more and less than 70%)

# System: blackgrass
# Test: Test Example 5: herbicidal effect by foliage application, plastic box (Table 20, symbol J)
# Format: in vivo, blackgrass (Alopecurus myosuroides)
# Details: foliage application, 320 g/ha, evaluated three weeks after application
# How it was run: as §2
row,Compound,herbicidal effect on J: blackgrass
1,COc1ccc(-c2sc3ccc(F)cc3c2-c2c(O)c(C)nn(C)c2=O)cc1F [2-086],0 (Herbicidal rate of 5% or less (almost no effect))

# System: southern crabgrass
# Test: Test Example 5: herbicidal effect by foliage application, plastic box (Table 20, symbol F)
# Format: in vivo, southern crabgrass (Digitaria ciliaris)
# Details: foliage application, 320 g/ha, evaluated three weeks after application
# How it was run: as §2
row,Compound,herbicidal effect on F: southern crabgrass
1,COc1ccc(-c2sc3ccc(F)cc3c2-c2c(O)c(C)nn(C)c2=O)cc1F [2-086],0 (Herbicidal rate of 5% or less (almost no effect))

# System: blackgrass
# Test: Test Example 4: herbicidal effect by soil treatment (Table 19, symbol J)
# Format: in vivo, blackgrass (Alopecurus myosuroides)
# Details: 320 g/ha
# How it was run: as §3
row,Compound,"herbicidal effect rating, J: blackgrass"
1,COc1ccc(-c2sc3ccc(F)cc3c2-c2c(O)c(C)nn(C)c2=O)cc1F [2-086],0 (Herbicidal rate of 5% or less (almost no effect))

# System: persian speedwell
# Test: Test Example 4: herbicidal effect by soil treatment (Table 19, symbol R)
# Format: in vivo, Persian speedwell (Veronica persica)
# Details: 320 g/ha
# How it was run: as §3
row,Compound,"herbicidal effect rating, R: persian speedwell"
1,COc1ccc(-c2sc3ccc(F)cc3c2-c2c(O)c(C)nn(C)c2=O)cc1F [2-086],5 (Herbicidal rate of 90% or more (almost completely withered))

# System: rice flat sedge
# Test: Test Example 3: herbicidal effect by foliage application, Wagner pot (Table 18, symbol E)
# Format: in vivo, rice flat sedge (Cyperus iria)
# Details: 320 g/ha
# How it was run: as §1
row,Compound,"herbicidal effect on E (rice flat sedge), rating 0-5"
1,COc1ccc(-c2sc3ccc(F)cc3c2-c2c(O)c(C)nn(C)c2=O)cc1F [2-086],5 (Herbicidal rate of 90% or more (almost completely withered))

# System: wild oat
# Test: Test Example 5: herbicidal effect by foliage application, plastic box (Table 20, symbol I)
# Format: in vivo, wild oat (Avena fatua)
# Details: foliage application, 320 g/ha, evaluated three weeks after application
# How it was run: as §2
row,Compound,herbicidal effect on I: wild oat
1,COc1ccc(-c2sc3ccc(F)cc3c2-c2c(O)c(C)nn(C)c2=O)cc1F [2-086],0 (Herbicidal rate of 5% or less (almost no effect))

# System: Italian ryegrass
# Test: Test Example 4: herbicidal effect by soil treatment (Table 19, symbol K)
# Format: in vivo, Italian ryegrass (Lolium multiflorum)
# Details: 320 g/ha
# How it was run: as §3
row,Compound,"herbicidal effect rating, K: Italian ryegrass"
1,COc1ccc(-c2sc3ccc(F)cc3c2-c2c(O)c(C)nn(C)c2=O)cc1F [2-086],0 (Herbicidal rate of 5% or less (almost no effect))

# System: velvetleaf
# Test: Test Example 4: herbicidal effect by soil treatment (Table 19, symbol M)
# Format: in vivo, velvetleaf (Abutilon theophrasti)
# Details: 320 g/ha
# How it was run: as §3
row,Compound,"herbicidal effect rating, M: velvetleaf"
1,COc1ccc(-c2sc3ccc(F)cc3c2-c2c(O)c(C)nn(C)c2=O)cc1F [2-086],4 (Herbicidal rate of 70% or more and less than 90%)

# System: barnyard grass
# Test: Test Example 4: herbicidal effect by soil treatment (Table 19, symbol H)
# Format: in vivo, barnyard grass (Echinochloa crus-galli)
# Details: 320 g/ha
# How it was run: as §3
row,Compound,"herbicidal effect rating, H: barnyard grass"
1,COc1ccc(-c2sc3ccc(F)cc3c2-c2c(O)c(C)nn(C)c2=O)cc1F [2-086],3 (Herbicidal rate of 40% or more and less than 70%)

# System: lambsquarters
# Test: Test Example 5: herbicidal effect by foliage application, plastic box (Table 20, symbol O)
# Format: in vivo, lambsquarters (Chenopodium album)
# Details: foliage application, 320 g/ha, evaluated three weeks after application
# How it was run: as §2
row,Compound,herbicidal effect on O: lambsquarters
1,COc1ccc(-c2sc3ccc(F)cc3c2-c2c(O)c(C)nn(C)c2=O)cc1F [2-086],4 (Herbicidal rate of 70% or more and less than 90%)

# System: redroot pigweed
# Test: Test Example 5: herbicidal effect by foliage application, plastic box (Table 20, symbol N)
# Format: in vivo, redroot pigweed (Amaranthus retroflexus)
# Details: foliage application, 320 g/ha, evaluated three weeks after application
# How it was run: as §2
row,Compound,herbicidal effect on N: redroot pigweed
1,COc1ccc(-c2sc3ccc(F)cc3c2-c2c(O)c(C)nn(C)c2=O)cc1F [2-086],4 (Herbicidal rate of 70% or more and less than 90%)

# System: barnyard grass
# Test: Test Example 5: herbicidal effect by foliage application, plastic box (Table 20, symbol H)
# Format: in vivo, barnyard grass (Echinochloa crus-galli)
# Details: foliage application, 320 g/ha, evaluated three weeks after application
# How it was run: as §2
row,Compound,herbicidal effect on H: barnyard grass
1,COc1ccc(-c2sc3ccc(F)cc3c2-c2c(O)c(C)nn(C)c2=O)cc1F [2-086],3 (Herbicidal rate of 40% or more and less than 70%)
